Test results published in patent US20180003695A1, “METHOD FOR QUANTITATIVE MEASUREMENT OF GASTRIC ACIDITY USING 13C CARBONATE SALT” (priority 2010, published 2018).

Columns and labels:
gastric acid secretion = test: Correlation between enzyme activity of CYP2C19 and CYP3A4 and effect of omeprazole, 13C-CaCO3 expiration test; assay type: in vivo, rats; conditions: ketoconazole 50 mg/kg oral 30 min before omeprazole 3 mg/kg i.v.; 13C-CaCO3 100 μmol/kg oral 2 hours after omeprazole
Description: Fasted rats (7 weeks old, female, SD rats) were used as experimental animals. The rats were divided into an omeprazole administration group (n=3), a ketoconazole pre-treatment group (n=3), and a control group (n=3).
Expired air was then collected. […] Expired air was then collected.
The above expired air was used as test samples, and Δ^13C (‰) was measured with a mass spectrometer for expired air analysis (ABCA: manufactured by SerCon) from the concentration of ^13CO2 excreted in the expired air.

[1] = tested on: platelet aggregation by ADP stimulation; conditions: clopidogrel 10 mg/kg oral, ketoconazole 50 mg/kg oral 30 min before, blood 2 hours after clopidogrel
Excerpt: Fasted rats (7 weeks old, female, SD rats) were used as experimental animals.

Compound | Δ13C (‰) in the expired air after 13C-CaCO3, effect of ketoconazole pre-treatment before omeprazole (gastric acid secretion) | platelet aggregation inhibitory action of clopidogrel under ketoconazole pre-treatment [1]
CC(=O)N1CCN(c2ccc(OCC3COC(Cn4ccnc4)(c4ccc(Cl)cc4Cl)O3)cc2)CC1 (centres unmarked) [ketoconazole] | decreased | –
COC(=O)[C@H](c1ccccc1Cl)N1CCc2sccc2C1 [clopidogrel] | – | reduced
